Data reported in patent publication US8759522B2, “Inhibitors of protein tyrosine kinase activity” (Methylgene Inc., priority 2008, dated 2014).

System: VEGF-dependent Erk phosphorylation in HUVEC cells
Experiment: VEGF-dependent Erk phosphorylation
Type: cell-based
Settings: Homo sapiens, 1.5 h compound, VEGF165 150 ng/ml, phospho ERK1/2 Western blot
Source text: VEGF-Dependent Erk Phosphorylation
HUVEC cells were purchased from Cambrex Bio Science Walkersville, Inc and cultured according to the vendor's instructions. The full-length coding sequence of VEGF165 was cloned using the Gateway Cloning Technology (Invitrogen) for baculovirus expression Sf9 cells. VEGF165 was purified from conditioned media using a NaCl gradient elution from a HiTrap heparin column (GE Healthcare Life Sciences) followed by an imidazole gradient elution from a HiTrap chelating column (GE Healthcare Life Sciences), then buffer stored in PBS supplemented with 0.1% BSA and filter sterilized
Cells were seeded at 8000 cells/well of a 96 wells plate and grown for 48 hours. Cells were then grown overnight in serum and growth factor-free medium and exposed for 1.5 h to compounds dilutions. Following a 15 min incubation in medium, VEGF165 (150 ng/ml) cells were lysed in ice-cold lysis buffer (50 mM HEPES, pH 7.4, 150 mM NaCl, 1.5 mM MgCl2, 1% Triton X-100, 10% glycerol) containing 1 mM 4-(2 aminoethyl)benzenesulfonyl fluoride hydrochloride, 200 μM sodium orthovanadate, 1 mM sodium fluoride, 10 μg/mL leupeptin, 10 μg/mL aprotinin, 1 μg/mL pepstatin and 50 μg/mL Na-p-tosyl-L-lysine chloromethyl ketone hydrochloride and processed as Western blots to detect anti-phospho ERK1/2 (T202/Y204) (Cell Signaling Technologies).
lysates samples from single treatment wells were separated on 5-20% SDS-PAGE gels and immunobloting was performed using Immobilon polyvinylidene difluoride membranes (Amersham) according to the manufacturer's instructions.

`O=C(Nc1ccc(Oc2ccnc3cc(-c4ccc(C5OCCCO5)cn4)sc23)c(F)c1)NC1CC1` was tested. Which IC50 did it give?
The IC50 was under 250 nM.

How did the IC50 turn out when `COCCNCc1ccc(-c2cc3nccc(Oc4ccc(NC(=O)Nc5cccc(C(N)=O)c5)cc4F)c3s2)nc1` was run?
Its IC50 is under 250 nM.

With `COCCNCc1ccc(-c2cc3nccc(Oc4ccc(NC(=O)Nc5cccc(S(C)(=O)=O)c5)cc4F)c3s2)nc1` as the compound, how does the IC50 read?
The IC50 was under 250 nM.

Which IC50 does the source give for `COCCNCc1cccc(-c2cc3nccc(Oc4ccc(NC(=O)NC5CC5)cc4F)c3s2)n1` here?
The IC50 was under 250 nM.

With `COCCNCc1cnc(-c2cc3nccc(Oc4ccc(NC(=O)Nc5ccc(OC)cc5)cc4F)c3s2)n1C` as the compound, how does the IC50 read?
The IC50 was under 250 nM.

`COCCN(Cc1ccc(-c2cc3nccc(Oc4ccc(NC(=O)Nc5cccc(S(C)(=O)=O)c5)cc4F)c3s2)nc1)C(C)=O` [drawing 152] was tested. Which IC50 did it give?
The IC50 was under 250 nM.

How did the IC50 turn out when `COCCN(Cc1ccc(-c2cc3nccc(Oc4ccc(NC(=O)Nc5cccc(C(N)=O)c5)cc4F)c3s2)nc1)C(=O)OC` [drawing 160] was run?
The IC50 was under 250 nM.

`COCCN(Cc1ccc(-c2cc3nccc(Oc4ccc(NC(=O)NC5CC5)cc4F)c3s2)nc1)C(=O)[C@H](N)C(C)C` [drawing 143] was tested. Which IC50 did it give?
The IC50 was under 250 nM.

`COCCNCc1ccc(-c2cc3nccc(Oc4ccc(NC(=O)Nc5cccc(C(=O)N(C)C)c5)cc4F)c3s2)nc1` was tested. Which IC50 did it give?
Its IC50 is under 250 nM.

Which IC50 does the source give for `COCCN(Cc1ccc(-c2cc3nccc(Oc4ccc(NC(=O)Nc5cccc(S(C)(=O)=O)c5)cc4F)c3s2)nc1)C(=O)OC` here?
Its IC50 is under 250 nM.

Which IC50 does the source give for `COCCOCCOCCOCCNCc1ccc(-c2cc3nccc(Oc4ccc(NC(=O)NC5CC5)cc4F)c3s2)nc1` [drawing 129] here?
The IC50 was under 250 nM.

With `COCCNCc1ccc(-c2cc3nccc(Oc4ccc(NC(=O)Nc5ccc(F)cc5F)cc4F)c3s2)nc1` as the compound, how does the IC50 read?
Its IC50 is under 250 nM.

With `COCCNCc1ccc(-c2cc3nccc(Oc4ccc(NC(=O)N[C@H]5CCOC5)cc4F)c3s2)nc1` as the compound, how does the IC50 read?
Its IC50 is under 250 nM.

Which IC50 does the source give for `COCCNCc1ccc(-c2cc3nccc(Oc4ccc(NC(=O)OC5CCC5)cc4F)c3s2)nc1` here?
The IC50 was under 250 nM.

Biological target: T1, VEGFR2 (KDR) (Homo sapiens, UniProt P35968)
T1 construct: made in house; host or cells: Sf9 cells (Spodoptera frugiperda), baculovirus (Bac-to-Bac)
T1 sequence (P35968 806-1356): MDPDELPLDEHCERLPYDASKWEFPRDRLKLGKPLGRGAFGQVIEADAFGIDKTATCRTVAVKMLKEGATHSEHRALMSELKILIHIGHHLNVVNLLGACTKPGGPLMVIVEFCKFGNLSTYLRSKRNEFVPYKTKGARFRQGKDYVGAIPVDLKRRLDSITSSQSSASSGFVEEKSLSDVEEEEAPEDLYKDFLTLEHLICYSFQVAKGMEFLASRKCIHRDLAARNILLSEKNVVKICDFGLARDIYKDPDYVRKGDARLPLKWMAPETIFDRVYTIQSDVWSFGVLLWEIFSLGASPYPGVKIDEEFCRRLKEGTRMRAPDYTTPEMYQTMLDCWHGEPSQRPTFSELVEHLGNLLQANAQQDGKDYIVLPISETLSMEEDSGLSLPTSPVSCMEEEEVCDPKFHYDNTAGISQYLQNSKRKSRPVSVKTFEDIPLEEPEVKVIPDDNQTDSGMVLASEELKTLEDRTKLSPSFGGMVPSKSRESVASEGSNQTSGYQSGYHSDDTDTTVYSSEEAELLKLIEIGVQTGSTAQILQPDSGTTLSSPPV
Experiment: In vitro receptor tyrosine kinase assay (VEGF receptor KDR), DELFIA
Type: biochemical
Settings: recombinant GST-VEGFR2 catalytic domain, ATP 0.6 uM, enzyme 5 nM
Source text: In Vitro Receptor Tyrosine Kinase Assay (VEGF Receptor KDR)
This test measures the ability of compounds to inhibit the enzymatic activity of recombinant human VEGF receptor enzymatic activity.
A 1.6-kb cDNA corresponding to the catalytic domain of VEGFR2 (KDR) (Genbank accession number AF035121 amino acid 806 to 1356) is cloned into the Pst I site of the pDEST20 Gateway vector (Invitrogen) for the production of a GST-tagged version of that enzyme. This constuct is used to generate recombinant baculovirus using the Bac-to-Bac™ system according to the manucfacturer's instructions (Invitrogen).
The GST-VEGFR2806-1356 protein is expressed in Sf9 cells (Spodoptera frugiperda) upon infection with recombinant baculovirus construct. Briefly, Sf9 cells grown in suspension and maintained in serum-free medium (Sf900 II supplemented with gentamycin) at a cell density of about 2×10^6 cells/ml are infected with the above-mentioned viruses at a multiplicity of infection (MOI) of 0.1 during 72 hours at 27° C. with agitation at 120 rpm on a rotary shaker. Infected cells are harvested by centrifugation at 398 g for 15 min. Cell pellets are frozen at −80° C. until purification is performed.
All steps described in cell extraction and purification are performed at 4° C. Frozen Sf9 cell pellets infected with the GST-VEGFR2806-1356 recombinant baculovirus are thawed and gently resuspended in Buffer A (PBS pH 7.3 supplemented with 1 μg/ml pepstatin, 2 μg/ml Aprotinin and leupeptin, 50 μg/ml PMSF, 50 μg/ml TLCK and 10 μM E64 and 0.5 mM DTT) using 3 ml of buffer per gram of cells. Suspension is Dounce homogenized and 1% Triton X-100 is added to the homogenate after which it is centrifuged at 22500 g, 30 min., 4° C. The supernatant (cell extract) is used as starting material for purification of GST-VEGFR2806-1356.
The supernatant is loaded onto a GST-agarose column (Sigma) equilibrated with PBS pH 7.3. Following a four column volume (CV) wash with PBS pH 7.3+1% Triton X-100 and 4 CV wash with buffer B (50 mM Tris pH 8.0, 20% glycerol and 100mM NaCl), bound proteins are step eluted with 5 CV of buffer B supplemented with 5 mM DTT and 15 mM glutathion. GST-VEGFR2806-1356 enriched fractions from this chromatography step are pooled based on U.V. trace i.e. fractions with high O.D.280. Final GST-VEGFR2806-1356 protein preparations concentrations are about 0.7 mg/ml with purity approximating 70%. Purified GST-VEGFR2806-1356 protein stocks are aliquoted and frozen at −80° C. prior to use in enzymatic assay.
Inhibition of VEGFR/KDR is measured in a DELFIA™ assay (Perkin Elmer). The substrate poly(Glu4, Tyr) is immobilized onto black high-binding polystyrene 96-well plates. The coated plates are washed and stored at 4° C. During the assay, the enzyme is pre-incubated with inhibitor and Mg-ATP on ice in polypropylene 96-well plates for 4 minutes, and then transferred to the coated plates. The subsequent kinase reaction takes place at 30° C. for 10-30 minutes. ATP concentrations in the assay are 0.6 uM for VEGFR/KDR (2× the Km). Enzyme concentration is 5 nM. After incubation, the kinase reactions are quenched with EDTA and the plates are washed. Phosphorylated product is detected by incubation with Europium-labeled anti-phosphotyrosine MoAb. After washing the plates, bound MoAb is detected by time-resolved fluorescence in a Gemini SpectraMax reader (Molecular Devices). Compounds are evaluated over a range of concentrations and IC50's (concentration of compounds giving 50% inhibition of enzymatic activity) are determined. In the table, “a” indicates inhibitory activity at a concentration of less than 250 nanomolar; “b” indicates inhibitory activity at a concentration ≧250 but <500 nanomolar, “c” indicates inhibitory activity at ≧500 but <1000 nanomolar; and “d” indicates inhibitory activity ≧1000 nanomolar.

With `O=C(Nc1ccc(Oc2ccnc3cc(-c4ccc(C5OCCCO5)cn4)sc23)c(F)c1)NC1CC1` as the compound, how does the IC50 read?
Its IC50 is under 250 nM.

`COCCNCc1ccc(-c2cc3nccc(Oc4ccc(NC(=O)Nc5cccc(C(N)=O)c5)cc4F)c3s2)nc1` was tested. Which IC50 did it give?
The IC50 was under 250 nM.

For `COCCNCc1ccc(-c2cc3nccc(Oc4ccc(NC(=O)Nc5cccc(S(C)(=O)=O)c5)cc4F)c3s2)nc1`, which IC50 is on record?
The IC50 was under 250 nM.

With `COCCNCc1cccc(-c2cc3nccc(Oc4ccc(NC(=O)NC5CC5)cc4F)c3s2)n1` as the compound, how does the IC50 read?
The IC50 was under 250 nM.

How did the IC50 turn out when `COCCNCc1ccc(-c2cc3nccc(Oc4ccc(NC(=O)Nc5cccc(C(=O)OC)c5)cc4F)c3s2)nc1` was run?
Its IC50 is under 250 nM.

How did the IC50 turn out when `COCCNCc1cnc(-c2cc3nccc(Oc4ccc(NC(=O)Nc5ccc(OC)cc5)cc4F)c3s2)n1C` was run?
Its IC50 is under 250 nM.

For `COCCN(Cc1ccc(-c2cc3nccc(Oc4ccc(NC(=O)Nc5cccc(S(C)(=O)=O)c5)cc4F)c3s2)nc1)C(C)=O` [drawing 152], which IC50 is on record?
The IC50 was under 250 nM.

How did the IC50 turn out when `COCCN(Cc1ccc(-c2cc3nccc(Oc4ccc(NC(=O)Nc5cccc(C(N)=O)c5)cc4F)c3s2)nc1)C(=O)OC` [drawing 160] was run?
The IC50 was under 250 nM.

For `COCCN(Cc1ccc(-c2cc3nccc(Oc4ccc(NC(=O)NC5CC5)cc4F)c3s2)nc1)C(=O)[C@H](N)C(C)C` [drawing 143], which IC50 is on record?
Its IC50 is under 250 nM.

Which IC50 does the source give for `COCCNCc1ccc(-c2cc3nccc(Oc4ccc(NC(=O)Nc5cccc(C(=O)N(C)C)c5)cc4F)c3s2)nc1` here?
Its IC50 is under 250 nM.

`COCCN(Cc1ccc(-c2cc3nccc(Oc4ccc(NC(=O)NC5CC5)cc4F)c3s2)nc1)C(=O)OC` was tested. Which IC50 did it give?
Its IC50 is under 250 nM.

`COCCN(Cc1ccc(-c2cc3nccc(Oc4ccc(NC(=O)Nc5cccc(S(C)(=O)=O)c5)cc4F)c3s2)nc1)C(=O)OC` was tested. Which IC50 did it give?
Its IC50 is under 250 nM.

For `COCCOCCOCCOCCNCc1ccc(-c2cc3nccc(Oc4ccc(NC(=O)NC5CC5)cc4F)c3s2)nc1` [drawing 129], which IC50 is on record?
The IC50 was under 250 nM.

With `COCCNCc1ccc(-c2cc3nccc(Oc4ccc(NC(=O)C5CC5)cc4F)c3s2)nc1` as the compound, how does the IC50 read?
Its IC50 is 250 to 500 nM.

For `COCCNCc1ccc(-c2cc3nccc(Oc4ccc(NC(=O)Nc5ccc(F)cc5F)cc4F)c3s2)nc1`, which IC50 is on record?
Its IC50 is under 250 nM.

How did the IC50 turn out when `COCCNCc1ccc(-c2cc3nccc(Oc4ccc(NC(=O)N[C@H]5CCOC5)cc4F)c3s2)nc1` was run?
Its IC50 is 500 to 1000 nM.

Which IC50 does the source give for `CNC(=O)c1cccc(NC(=O)Nc2ccc(Oc3ccnc4cc(-c5ccc(CNCCOC)cn5)sc34)c(F)c2)c1` here?
The IC50 was under 250 nM.

With `COCCNCc1ccc(-c2cc3nccc(Oc4ccc(NC(=O)OC5CCC5)cc4F)c3s2)nc1` as the compound, how does the IC50 read?
The IC50 was under 250 nM.
